The subject of this assay is coughing induced by citric acid. Briefly: Effect on guinea pig coughing models induced by citric acid. In kind it is in vivo. The conditions noted are these: s.c.; for antitussive effect (number of coughs): Comparative Example 1; for effects for suppressing coughs in comparison to the cough number of the pathosis-induced group: Example 3, 0.1 mg/kg, p<0.05 t-Test. From the text: The fact that the morphinan derivatives having the nitrogen-containing cyclic substituent, represented by Formula (I) and the pharmaceutically acceptable acid addition salts thereof are effective for the therapy of coughing may be confirmed by showing inhibitory action against coughing of a guinea pig, which coughing has been induced by administering citric acid to the guinea pig. The inhibitory action against the coughing induced by citric acid administration may be confirmed by the method described in the Examples, but the method is not restricted thereto.
A solution of test substance, a solution of positive control substance (codeine phosphate) or the administration solvent was subcutaneously administered to 6 week-old Hartley guinea pigs at a volume of 0.1 mL/100 g. After leaving the guinea pigs to stand for 25 minutes, they were retained in acrylic chambers for cough detection and the chambers were set to a measurement equipment. Thirty minutes after the subcutaneous administration of the test substance, the nebulizer was turned on and 100 mM citric acid solution, a cough inducer, was atomized and sprayed to the face of each guinea pig for a period of 15 minutes (velocity: 50 mm/min). A minipolygraph was used for recording, and the respiratory waveform within the period of 15 minutes was recorded. A signal when a large and acute change of flow rate compared to the respiratory waveform occurred independently was considered as a cough, and marked on the recording sheet. The marking was conducted while recording the respiratory waveform. When a large and continuous amplitude arose by struggling, the amplitude was distinguished by noting that it was caused by struggling. Since some coughings cause just before, and/or between struggling, the recording sheet and the motion of the guinea pig were observed as simultaneously as possible.

The values below come from US8106065B2, “Antitussive agent” (Toray Industries, Inc., priority 2005, dated 2012).

Counter-ions that a name gives are not always drawn.

As for `O=C1c2ccccc2C(=O)N1[C@@H]1CC[C@@]2(O)[C@H]3Cc4ccc(O)c5c4[C@@]2(CCN3CC2CC2)[C@H]1O5` [Compound 1, N-(17-cyclopropylmethyl-4,5α-epoxy-3,14-dihydroxy-morphinan-6β-yl)-phthalimide], the “effect for suppressing coughs in comparison to the cough number of the pathosis-induced group” value reads like this: (Example 1, 1 mg/kg, 100 mM citric acid spray 30 min after dosing, p<0.01, n=7) “approximately 94%”; (Example 2, 0.003 mg/kg, p<0.025 1 tailed-Shirley-Williams-Test, n=3) “approximately 50%”.

For `Oc1ccc2c3c1O[C@H]1[C@H](N4CCCC4)CC[C@@]4(O)[C@@H](C2)N(CC2CC2)CC[C@]314` [Compound 2, 17-cyclopropylmethyl-4,5α-epoxy-6β-(pyrrolidine-1-yl)-morphinan-3,14-diol.tartaric acid salt], the “antitussive effect (number of coughs)” value (10 mg/kg) was “no antitussive effect was observed”.

Regarding `O=C1C2=C(CCCC2)C(=O)N1[C@@H]1CC[C@@]2(O)[C@H]3Cc4ccc(O)c5c4[C@@]2(CCN3CC2CC2)[C@H]1O5` [Compound 3, N-(17-cyclopropylmethyl-4,5α-epoxy-3,14-dihydroxy-morphinan-6β-yl)-3,4,5,6-tetrahydrophthalimide.tartaric acid salt], under “n=3”, the “effects for suppressing coughs in comparison to the cough number of the pathosis-induced group” value (shortened to “effects for suppressing coughs”) was “approximately 29%”.

Consider `O=C1c2ccccc2CN1[C@@H]1CC[C@@]2(O)[C@H]3Cc4ccc(O)c5c4[C@@]2(CCN3CC2CC2)[C@H]1O5` [Compound 4, 2-(7-cyclopropylmethyl-4,5α-epoxy-3,14-dihydroxy-morphinan-6β-yl)-2,3-dihydro-isoindol-1-one-tartaric acid salt], for which, under “n=3”, the “effects for suppressing coughs” value is listed as around 25%.

For the molecule `O=C1c2ccccc2S(=O)(=O)N1[C@@H]1CC[C@@]2(O)[C@H]3Cc4ccc(O)c5c4[C@@]2(CCN3CC2CC2)[C@H]1O5` [Compound 5, N-(17-cyclopropylmethyl-4,5α-epoxy-3,14-dihydroxy-morphinan-6β-yl)-O-sulfonbenzoic acid imide-tartaric acid salt], the “effects for suppressing coughs” value (n=3) is given as around 28%.

Consider `O=C1C=CC(=O)N1[C@@H]1CC[C@@]2(O)[C@H]3Cc4ccc(O)c5c4[C@@]2(CCN3CC2CC2)[C@H]1O5` [Compound 6, N-(17-cyclopropylmethyl-4,5α-epoxy-3,14-dihydroxy-morphinan-6β-yl)-maleimide-tartaric acid salt], for which, under “1 mg/kg”, the “antitussive effect (number of coughs)” value is recorded as “no antitussive effect was observed”.

`COc1ccc2c3c1O[C@H]1[C@@H](O)C=C[C@H]4[C@@H](C2)N(C)CC[C@@]341` [codeine phosphate, reference compound]: the “effect for suppressing coughs” value runs as follows: (Example 1, 10 mg/kg, 100 mM citric acid spray 30 min after dosing, vs pathosis-induced group, p<0.05, n=7) “approximately 51%”; (Example 2, 10 mg/kg, p<0.05 Welch-Test, n=3) “approximately 37%”.
